Consider 13 molecules from patent US11331369B2, “Endoparasitic depsipeptides” (Zoetis Services LLC, priority 2017, dated 2022).

Assay [1] relates to third stage larvae of Haemonchus contortus. Briefly: Haemonchus contortus L3 (HcL3) Assay. Conditions: 96 h, read-out: HcL3 Minimum Effective Dose (MED). Format: cell-based.
Assay [2] deals with microfilariae of Dirofilaria immitis. Briefly: Dirofilaria immitis, Microfilaria (DiMF) In vitro Assay. Format: cell-based. As to conditions: 72 h, read-out: DiMF Minimum Effective Dose (MED), approximately 72 hours incubation, microfilariae assessed for survival or paralysis.

On to `Cc1cnn(Cc2ccc(C[C@H]3OC(=O)[C@H](CC(C)C)N(C)C(=O)[C@@H](C)OC(=O)[C@H](CC(C)C)N(C)C(=O)[C@@H](Cc4ccccc4)OC(=O)[C@H](CC(C)C)N(C)C(=O)[C@@H](C)OC(=O)[C@H](CC(C)C)N(C)C3=O)cc2)c1` [Example 2-2, (3S,6R,9S,12R,15S,18R,21S,24R)-6-benzyl-3,9,15,21-tetraisobutyl-4,10,12,16,22,24-hexamethyl-18-[[4-[(4-methylpyrazol-1-yl)methyl]phenyl]methyl]-1,7,13,19-tetraoxa-4,10,16,22-tetrazacyclotetracosane-2,5,8,11,14,17,20,23-octaone], for which the minimal effective concentration lay in the range of 1 to 10 µM in assay [1] and 0.001 to 0.01 µM in assay [2].

As to `CC(C)C[C@H]1C(=O)O[C@H](Cc2ccc(Cn3ccnc3C3CC3)cc2)C(=O)N(C)[C@@H](CC(C)C)C(=O)O[C@H](C)C(=O)N(C)[C@@H](CC(C)C)C(=O)O[C@H](Cc2ccc(Cn3ccnc3C3CC3)cc2)C(=O)N(C)[C@@H](CC(C)C)C(=O)O[C@H](C)C(=O)N1C` [Example 6-7, (3S,6R,9S,12R,15S,18R,21S,24R)-6,18-bis[[4-[(2-cyclopropylimidazol-1-yl)methyl]phenyl]methyl]-3,9,15,21-tetraisobutyl-4,10,12,16,22,24-hexamethyl-1,7,13,19-tetraoxa-4,10,16,22-tetrazacyclotetracosane-2,5,8,11,14,17,20,23-octaone], the minimal effective concentration is 1 to 10 µM in assay [1] and 0.01 to 0.1 µM in assay [2].

Consider `COC(C)(C)Cc1ccnn1Cc1ccc(C[C@H]2OC(=O)[C@H](CC(C)C)N(C)C(=O)[C@@H](C)OC(=O)[C@H](CC(C)C)N(C)C(=O)[C@@H](Cc3ccc(Cn4nccc4CC(C)(C)OC)cc3)OC(=O)[C@H](CC(C)C)N(C)C(=O)[C@@H](C)OC(=O)[C@H](CC(C)C)N(C)C2=O)cc1` [Example 1b-214, (3S,6R,9S,12R,15S,18R,21S,24R)-3,9,15,21-tetraisobutyl-6,18-bis(4-((5-(2-methoxy-2-methylpropyl)-1H-pyrazol-1-yl)methyl)benzyl)-4,10,12,16,22,24-hexamethyl-1,7,13,19-tetraoxa-4,10,16,22-tetraazacyclotetracosan-2,5,8,11,14,17,20,23-octaone], for which the minimal effective concentration in assay [1] fell in the range of 1 to 10 µM; in assay [2] it was 0.01 to 0.1 µM.

Take `Cc1nc(C2CC2)n(Cc2ccc(C[C@H]3OC(=O)[C@H](CC(C)C)N(C)C(=O)[C@@H](C)OC(=O)[C@H](CC(C)C)N(C)C(=O)[C@@H](Cc4ccc(Cn5nc(C)nc5C5CC5)cc4)OC(=O)[C@H](CC(C)C)N(C)C(=O)[C@@H](C)OC(=O)[C@H](CC(C)C)N(C)C3=O)cc2)n1` [Example 9-57, (3S,6R,9S,12R,15S,18R,21S,24R)-6,18-bis(4-((5-cyclopropyl-3-methyl-1H-1,2,4-triazol-1-yl)methyl)benzyl)-3,9,15,21-tetraisobutyl-4,10,12,16,22,24-hexamethyl-1,7,13,19-tetraoxa-4,10,16,22-tetraazacyclotetracosan-2,5,8,11,14,17,20,23-octaone]: the minimal effective concentration in assay [1] is 1 to 10 µM; in assay [2] it was 0.01 to 0.1 µM.

As for `CCc1nc(C)nn1Cc1ccc(C[C@H]2OC(=O)[C@H](CC(C)C)N(C)C(=O)[C@@H](C)OC(=O)[C@H](CC(C)C)N(C)C(=O)[C@@H](Cc3ccc(Cn4nc(C)nc4CC)cc3)OC(=O)[C@H](CC(C)C)N(C)C(=O)[C@@H](C)OC(=O)[C@H](CC(C)C)N(C)C2=O)cc1` [Example 9-59, (3S,6R,9S,12R,15S,18R,21S,24R)-6,18-bis(4-((5-ethyl-3-methyl-1H-1,2,4-triazol-1-yl)methyl)benzyl)-3,9,15,21-tetraisobutyl-4,10,12,16,22,24-hexamethyl-1,7,13,19-tetraoxa-4,10,16,22-tetraazacyclotetracosan-2,5,8,11,14,17,20,23-octaone], the minimal effective concentration lay within 1 to 10 µM in assay [1] and 0.01 to 0.1 µM in assay [2].

As to `CC(C)C[C@H]1C(=O)O[C@H](Cc2ccc(Cn3ccccc3=O)cc2)C(=O)N(C)[C@@H](CC(C)C)C(=O)O[C@H](C)C(=O)N(C)[C@@H](CC(C)C)C(=O)O[C@H](Cc2ccc(Cn3ccccc3=O)cc2)C(=O)N(C)[C@@H](CC(C)C)C(=O)O[C@H](C)C(=O)N1C` [Example 9-28, (3S,6R,9S,12R,15S,18R,21S,24R)-3,9,15,21-tetraisobutyl-4,6,10,16,18,22-hexamethyl-12,24-bis(4-((2-oxopyridin-1 (2H)-yl)methyl)benzyl)-1,7,13,19-tetraoxa-4,10,16,22-tetraazacyclotetracosan-2,5,8,11,14,17,20,23-octaone], the figures for the minimal effective concentration in assay [1] and in assay [2] were 1 to 10 µM and 0.001 to 0.01 µM, respectively.

As to `CC(C)C[C@H]1C(=O)O[C@H](Cc2ccc(Cn3cc(C(C)(C)C)cn3)cc2)C(=O)N(C)[C@@H](CC(C)C)C(=O)O[C@H](C)C(=O)N(C)[C@@H](CC(C)C)C(=O)O[C@H](Cc2ccc(Cn3cccn3)cc2)C(=O)N(C)[C@@H](CC(C)C)C(=O)O[C@H](C)C(=O)N1C` [Example 1a-17, (3S,6R,9S,12R,15S,18R,21S,24R)-6-(4-((1H-pyrazol-1-yl)methyl)benzyl)-18-(4-((4-(tert-butyl)-1H-pyrazol-1-yl)methyl)benzyl)-3,9,15,21-tetraisobutyl-4,10,12,16,22,24-hexamethyl-1,7,13,19-tetraoxa-4,10,16,22-tetraazacyclotetracosan-2,5,8,11,14,17,20,23-octaone], the minimal effective concentration in assay [1] lay within 1 to 10 µM; in assay [2] it was 0.001 to 0.01 µM.

`CCc1nccn1Cc1ccc(C[C@H]2OC(=O)[C@H](CC(C)C)N(C)C(=O)[C@@H](C)OC(=O)[C@H](CC(C)C)N(C)C(=O)[C@@H](Cc3ccccc3)OC(=O)[C@H](CC(C)C)N(C)C(=O)[C@@H](C)OC(=O)[C@H](CC(C)C)N(C)C2=O)cc1` [Example 8-4, (3S,6R,9S,12R,15S,18R,21S,24R)-6-benzyl-18-[[4-[(2-ethylimidazol-1-yl)methyl]phenyl]methyl]-3,9,15,21-tetraisobutyl-4,10,12,16,22,24-hexamethyl-1,7,13,19-tetraoxa-4,10,16,22-tetrazacyclotetracosane-2,5,8,11,14,17,20,23-octaone]: the minimal effective concentration in assay [1] lay within 1 to 10 µM; in assay [2], 0.01 to 0.1 µM.

Take `Cc1nn(Cc2ccc(C[C@H]3OC(=O)[C@H](CC(C)C)N(C)C(=O)[C@@H](C)OC(=O)[C@H](CC(C)C)N(C)C(=O)[C@@H](Cc4ccc(Cn5nc(C)c(F)c5C)cc4)OC(=O)[C@H](CC(C)C)N(C)C(=O)[C@@H](C)OC(=O)[C@H](CC(C)C)N(C)C3=O)cc2)c(C)c1F` [Example 1b-110, (3S,6R,9S,12R,15S,18R,21S,24R)-6,18-bis(4-((4-fluoro-3,5-dimethyl-1H-pyrazol-1-yl)methyl)benzyl)-3,9,15,21-tetraisobutyl-4,10,12,16,22,24-hexamethyl-1,7,13,19-tetraoxa-4,10,16,22-tetraazacyclotetracosan-2,5,8,11,14,17,20,23-octaone]: the minimal effective concentration lay in the range of 1 to 10 µM in assay [1] and 0.01 to 0.1 µM in assay [2].

Regarding `COc1cnn(Cc2ccc(C[C@H]3OC(=O)[C@H](CC(C)C)N(C)C(=O)[C@@H](C)OC(=O)[C@H](CC(C)C)N(C)C(=O)[C@@H](Cc4ccc(Cn5cc(OC)cn5)cc4)OC(=O)[C@H](CC(C)C)N(C)C(=O)[C@@H](C)OC(=O)[C@H](CC(C)C)N(C)C3=O)cc2)c1` [Example 1b-52, (3S,6R,9S,12R,15S,18R,21S,24R)-3,9,15,21-tetraisobutyl-6,18-bis(4-((4-methoxy-1H-pyrazol-1-yl)methyl)benzyl)-4,10,12,16,22,24-hexamethyl-1,7,13,19-tetraoxa-4,10,16,22-tetraazacyclotetracosan-2,5,8,11,14,17,20,23-octaone], the minimal effective concentration was 1 to 10 µM in assay [1] and 0.001 to 0.01 µM in assay [2].

For the molecule `CC(C)C[C@H]1C(=O)O[C@H](Cc2ccc(Cn3ccnc3C3CC3)cc2)C(=O)N(C)[C@@H](CC(C)C)C(=O)O[C@H](C)C(=O)N(C)[C@@H](CC(C)C)C(=O)O[C@H](Cc2ccccc2)C(=O)N(C)[C@@H](CC(C)C)C(=O)O[C@H](C)C(=O)N1C` [Example 8-7, (3S,6R,9S,12R,15S,18R,21S,24R)-6-benzyl-18-[[4-[(2-cyclopropylimidazol-1-yl)methyl]phenyl]methyl]-3,9,15,21-tetraisobutyl-4,10,12,16,22,24-hexamethyl-1,7,13,19-tetraoxa-4,10,16,22-tetrazacyclotetracosane-2,5,8,11,14,17,20,23-octaone], the minimal effective concentration in assay [1] was in the range of 1 to 10 µM; in assay [2], 0.001 to 0.01 µM.

As to `CC(C)C[C@H]1C(=O)O[C@H](Cc2ccc(Cn3cc(-c4ccncn4)cn3)cc2)C(=O)N(C)[C@@H](CC(C)C)C(=O)O[C@H](C)C(=O)N(C)[C@@H](CC(C)C)C(=O)O[C@H](Cc2ccccc2)C(=O)N(C)[C@@H](CC(C)C)C(=O)O[C@H](C)C(=O)N1C` [Example 2-45, (3S,6R,9S,12R,15S,18R,21S,24R)-6-benzyl-3,9,15,21-tetraisobutyl-4,10,12,16,22,24-hexamethyl-18-(4-((4-(pyrimidin-4-yl)-1H-pyrazol-1-yl)methyl)benzyl)-1,7,13,19-tetraoxa-4,10,16,22-tetraazacyclotetracosan-2,5,8,11,14,17,20,23-octaone], the values for the minimal effective concentration in assay [1] and in assay [2] were 1 to 10 µM and 0.001 to 0.01 µM, respectively.

In the case of `CC(C)C[C@H]1C(=O)O[C@H](Cc2ccc(Cn3cc(CO)cn3)cc2)C(=O)N(C)[C@@H](CC(C)C)C(=O)O[C@H](C)C(=O)N(C)[C@@H](CC(C)C)C(=O)O[C@H](Cc2ccccc2)C(=O)N(C)[C@@H](CC(C)C)C(=O)O[C@H](C)C(=O)N1C` [Example 2-19, (3S,6R,9S,12R,15S,18R,21S,24R)-6-benzyl-18-(4-((4-(hydroxymethyl)-1H-pyrazol-1-yl)methyl)benzyl)-3,9,15,21-tetraisobutyl-4,10,12,16,22,24-hexamethyl-1,7,13,19-tetraoxa-4,10,16,22-tetraazacyclotetracosan-2,5,8,11,14,17,20,23-octaone], the minimal effective concentration in assay [1] fell in the range of 1 to 10 µM; in assay [2], 0.001 to 0.01 µM.
